Assay in all cases: Z'-LYTE kinase panel
Common to all, as to format: biochemical

One assay deals with T1, NEK7 (Homo sapiens, UniProt Q8TDX7).
T1 construct: purchased ThermoFisher (SelectScreen, Z'-LYTE)
The method in brief:
(§1)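 Percent inhibition measured at 10 µM compound using the standard Z′-LYTE protocol, as part of a 225-kinase standard panel screen.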

In the next assay the target is T2, EPHA1 (Homo sapiens, UniProt P21709).
T2 construct: purchased ThermoFisher (SelectScreen, Z'-LYTE)
T2 sequence (P21709 26-976): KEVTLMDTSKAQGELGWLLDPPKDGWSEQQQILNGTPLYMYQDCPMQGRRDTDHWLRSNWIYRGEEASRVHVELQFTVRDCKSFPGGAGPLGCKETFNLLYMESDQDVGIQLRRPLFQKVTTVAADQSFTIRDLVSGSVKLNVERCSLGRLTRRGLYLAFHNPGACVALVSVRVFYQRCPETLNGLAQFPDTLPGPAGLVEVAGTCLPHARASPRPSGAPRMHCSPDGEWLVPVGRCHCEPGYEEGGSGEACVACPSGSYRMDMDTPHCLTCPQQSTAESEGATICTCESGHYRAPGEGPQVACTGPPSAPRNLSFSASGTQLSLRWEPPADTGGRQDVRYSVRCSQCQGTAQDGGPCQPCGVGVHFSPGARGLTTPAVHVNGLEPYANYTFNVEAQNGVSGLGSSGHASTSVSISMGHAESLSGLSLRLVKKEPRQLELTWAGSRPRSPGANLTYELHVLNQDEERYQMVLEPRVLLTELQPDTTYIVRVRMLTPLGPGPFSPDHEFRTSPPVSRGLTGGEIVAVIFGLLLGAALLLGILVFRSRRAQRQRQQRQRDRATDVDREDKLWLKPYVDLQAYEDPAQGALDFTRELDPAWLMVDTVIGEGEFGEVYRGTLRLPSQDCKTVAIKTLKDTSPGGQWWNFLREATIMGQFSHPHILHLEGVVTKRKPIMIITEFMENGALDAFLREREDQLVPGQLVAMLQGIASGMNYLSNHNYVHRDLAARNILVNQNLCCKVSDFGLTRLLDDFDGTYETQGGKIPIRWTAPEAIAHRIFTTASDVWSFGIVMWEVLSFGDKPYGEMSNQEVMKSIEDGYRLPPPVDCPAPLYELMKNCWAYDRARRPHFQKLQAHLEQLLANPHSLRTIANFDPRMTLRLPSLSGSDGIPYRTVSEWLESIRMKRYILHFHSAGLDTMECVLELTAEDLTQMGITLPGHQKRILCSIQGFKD
The method in brief: as §1

The target in another assay is T3, CAMK2B (CaMKII beta) (Homo sapiens, UniProt Q13554).
T3 construct: purchased ThermoFisher (SelectScreen, Z'-LYTE)
The method in brief:
as §1

Another assay concerns the target T4, EPHA5 (Homo sapiens, UniProt P54756).
T4 construct: purchased ThermoFisher (SelectScreen, Z'-LYTE)
The method in brief:
as §1

The next assay deals with T5, AXL (Homo sapiens, UniProt P30530).
T5 construct: purchased ThermoFisher (SelectScreen, Z'-LYTE)
T5 sequence (P30530 26-894): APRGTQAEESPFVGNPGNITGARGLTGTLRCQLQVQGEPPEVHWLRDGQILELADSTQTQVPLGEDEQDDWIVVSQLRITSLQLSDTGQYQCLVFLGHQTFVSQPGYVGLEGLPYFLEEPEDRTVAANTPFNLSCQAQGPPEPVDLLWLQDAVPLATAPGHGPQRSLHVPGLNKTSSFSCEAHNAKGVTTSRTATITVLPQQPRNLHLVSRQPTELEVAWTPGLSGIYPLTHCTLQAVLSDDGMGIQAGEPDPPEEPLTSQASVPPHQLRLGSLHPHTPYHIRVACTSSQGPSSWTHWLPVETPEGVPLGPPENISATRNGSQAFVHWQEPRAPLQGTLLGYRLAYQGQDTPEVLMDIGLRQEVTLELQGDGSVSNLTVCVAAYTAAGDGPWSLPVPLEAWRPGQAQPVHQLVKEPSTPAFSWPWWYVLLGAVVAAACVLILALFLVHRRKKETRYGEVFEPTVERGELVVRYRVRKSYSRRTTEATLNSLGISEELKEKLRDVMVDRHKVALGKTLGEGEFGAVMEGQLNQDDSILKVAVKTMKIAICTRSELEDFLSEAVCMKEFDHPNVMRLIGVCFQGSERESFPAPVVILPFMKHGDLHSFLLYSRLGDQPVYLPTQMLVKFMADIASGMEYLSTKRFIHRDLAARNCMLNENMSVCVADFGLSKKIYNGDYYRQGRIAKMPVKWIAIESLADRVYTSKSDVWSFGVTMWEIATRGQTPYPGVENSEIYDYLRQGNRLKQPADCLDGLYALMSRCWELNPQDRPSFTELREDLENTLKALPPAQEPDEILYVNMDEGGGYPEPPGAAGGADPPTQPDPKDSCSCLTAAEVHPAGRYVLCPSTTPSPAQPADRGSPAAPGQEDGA
The essentials: as §1

The target of another assay is T6, INSRR (IRR) (Homo sapiens, UniProt P14616).
T6 construct: purchased ThermoFisher (SelectScreen, Z'-LYTE)
T6 sequence (P14616 27-1297): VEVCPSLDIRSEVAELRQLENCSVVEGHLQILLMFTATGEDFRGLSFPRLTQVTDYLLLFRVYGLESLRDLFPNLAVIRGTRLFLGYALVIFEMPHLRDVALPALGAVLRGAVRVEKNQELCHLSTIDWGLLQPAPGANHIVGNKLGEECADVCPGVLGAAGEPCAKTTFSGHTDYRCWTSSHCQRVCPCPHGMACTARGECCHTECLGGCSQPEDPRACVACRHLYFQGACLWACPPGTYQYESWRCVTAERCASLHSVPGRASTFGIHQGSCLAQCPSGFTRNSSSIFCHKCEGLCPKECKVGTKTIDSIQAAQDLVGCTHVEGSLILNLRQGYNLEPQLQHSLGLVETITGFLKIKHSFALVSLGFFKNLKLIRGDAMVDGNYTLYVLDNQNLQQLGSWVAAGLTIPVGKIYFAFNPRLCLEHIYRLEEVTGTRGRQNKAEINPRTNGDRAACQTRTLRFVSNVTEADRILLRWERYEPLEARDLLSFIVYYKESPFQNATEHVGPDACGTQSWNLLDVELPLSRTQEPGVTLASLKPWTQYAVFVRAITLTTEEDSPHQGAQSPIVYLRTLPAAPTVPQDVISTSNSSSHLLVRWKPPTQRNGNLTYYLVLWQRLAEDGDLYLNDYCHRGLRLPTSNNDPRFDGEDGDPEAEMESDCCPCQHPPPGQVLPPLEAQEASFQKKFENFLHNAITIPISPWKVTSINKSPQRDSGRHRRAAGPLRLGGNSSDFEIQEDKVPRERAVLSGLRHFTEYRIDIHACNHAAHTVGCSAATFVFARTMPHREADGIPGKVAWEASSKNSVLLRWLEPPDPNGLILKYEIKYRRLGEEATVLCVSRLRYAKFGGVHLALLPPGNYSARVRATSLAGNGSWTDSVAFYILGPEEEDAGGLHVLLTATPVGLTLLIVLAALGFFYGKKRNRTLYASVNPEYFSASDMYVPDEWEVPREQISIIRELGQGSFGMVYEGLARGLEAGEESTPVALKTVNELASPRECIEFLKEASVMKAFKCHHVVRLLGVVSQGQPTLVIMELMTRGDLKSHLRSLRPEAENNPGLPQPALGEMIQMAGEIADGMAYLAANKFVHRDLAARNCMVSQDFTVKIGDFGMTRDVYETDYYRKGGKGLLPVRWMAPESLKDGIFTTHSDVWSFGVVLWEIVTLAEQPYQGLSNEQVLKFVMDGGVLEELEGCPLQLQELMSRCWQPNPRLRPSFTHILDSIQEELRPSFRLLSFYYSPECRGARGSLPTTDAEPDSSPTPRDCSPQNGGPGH
The essentials: as §1

Another assay addresses T7, PHKG2 (Homo sapiens, UniProt P15735).
T7 construct: purchased ThermoFisher (SelectScreen, Z'-LYTE)
T7 sequence (P15735 1-406): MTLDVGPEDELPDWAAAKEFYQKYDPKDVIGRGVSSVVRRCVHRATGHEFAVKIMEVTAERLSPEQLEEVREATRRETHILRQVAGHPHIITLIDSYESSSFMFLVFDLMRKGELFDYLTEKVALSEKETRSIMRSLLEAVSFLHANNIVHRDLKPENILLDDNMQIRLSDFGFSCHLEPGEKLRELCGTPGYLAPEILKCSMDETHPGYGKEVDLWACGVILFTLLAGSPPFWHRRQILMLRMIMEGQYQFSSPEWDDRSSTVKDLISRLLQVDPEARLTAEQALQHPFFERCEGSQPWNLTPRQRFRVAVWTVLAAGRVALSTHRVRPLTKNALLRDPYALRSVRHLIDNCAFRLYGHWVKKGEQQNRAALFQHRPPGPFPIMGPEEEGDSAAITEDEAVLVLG
The essentials: as §1

A further assay has as its target T8, PRKCQ (PKC theta) (Homo sapiens, UniProt Q04759).
T8 construct: purchased ThermoFisher (SelectScreen, Z'-LYTE)
The essentials: as §1

Consider three compounds from paper PMC4854315, “Discovery of a novel allosteric inhibitor-binding site in ERK5: comparison with the canonical kinase hinge ATP-binding site” (Acta Crystallographica. Section D, Structural Biology, 2016).

T8 sequence (Q04759 whole entry): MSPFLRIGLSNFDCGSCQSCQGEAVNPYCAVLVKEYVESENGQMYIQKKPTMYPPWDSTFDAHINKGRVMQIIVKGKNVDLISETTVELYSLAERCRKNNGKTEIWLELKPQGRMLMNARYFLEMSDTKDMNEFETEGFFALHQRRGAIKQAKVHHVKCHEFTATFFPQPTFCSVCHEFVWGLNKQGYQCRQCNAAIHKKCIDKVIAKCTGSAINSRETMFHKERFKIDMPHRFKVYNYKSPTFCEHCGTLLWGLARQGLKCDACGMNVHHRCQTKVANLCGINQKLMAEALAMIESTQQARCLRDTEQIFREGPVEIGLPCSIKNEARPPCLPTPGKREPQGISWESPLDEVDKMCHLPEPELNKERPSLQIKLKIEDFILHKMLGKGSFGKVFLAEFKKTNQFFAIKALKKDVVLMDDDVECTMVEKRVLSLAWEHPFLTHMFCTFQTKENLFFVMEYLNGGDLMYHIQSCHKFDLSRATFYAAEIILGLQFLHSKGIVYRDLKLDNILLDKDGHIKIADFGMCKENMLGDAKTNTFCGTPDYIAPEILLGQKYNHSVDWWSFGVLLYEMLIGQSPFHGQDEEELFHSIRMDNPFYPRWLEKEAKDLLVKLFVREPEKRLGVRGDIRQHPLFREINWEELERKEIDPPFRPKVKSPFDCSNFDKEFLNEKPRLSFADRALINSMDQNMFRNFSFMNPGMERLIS
T1 sequence (Q8TDX7 whole entry): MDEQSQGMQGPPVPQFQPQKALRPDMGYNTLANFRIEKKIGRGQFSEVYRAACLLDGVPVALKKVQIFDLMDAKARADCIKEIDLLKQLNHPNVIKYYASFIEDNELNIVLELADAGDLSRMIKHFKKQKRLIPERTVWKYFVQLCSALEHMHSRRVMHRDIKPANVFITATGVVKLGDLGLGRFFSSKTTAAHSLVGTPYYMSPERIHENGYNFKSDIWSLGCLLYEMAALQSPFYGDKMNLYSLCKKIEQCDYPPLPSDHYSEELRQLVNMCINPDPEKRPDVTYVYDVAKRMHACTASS
T4 sequence (P54756 25-1037): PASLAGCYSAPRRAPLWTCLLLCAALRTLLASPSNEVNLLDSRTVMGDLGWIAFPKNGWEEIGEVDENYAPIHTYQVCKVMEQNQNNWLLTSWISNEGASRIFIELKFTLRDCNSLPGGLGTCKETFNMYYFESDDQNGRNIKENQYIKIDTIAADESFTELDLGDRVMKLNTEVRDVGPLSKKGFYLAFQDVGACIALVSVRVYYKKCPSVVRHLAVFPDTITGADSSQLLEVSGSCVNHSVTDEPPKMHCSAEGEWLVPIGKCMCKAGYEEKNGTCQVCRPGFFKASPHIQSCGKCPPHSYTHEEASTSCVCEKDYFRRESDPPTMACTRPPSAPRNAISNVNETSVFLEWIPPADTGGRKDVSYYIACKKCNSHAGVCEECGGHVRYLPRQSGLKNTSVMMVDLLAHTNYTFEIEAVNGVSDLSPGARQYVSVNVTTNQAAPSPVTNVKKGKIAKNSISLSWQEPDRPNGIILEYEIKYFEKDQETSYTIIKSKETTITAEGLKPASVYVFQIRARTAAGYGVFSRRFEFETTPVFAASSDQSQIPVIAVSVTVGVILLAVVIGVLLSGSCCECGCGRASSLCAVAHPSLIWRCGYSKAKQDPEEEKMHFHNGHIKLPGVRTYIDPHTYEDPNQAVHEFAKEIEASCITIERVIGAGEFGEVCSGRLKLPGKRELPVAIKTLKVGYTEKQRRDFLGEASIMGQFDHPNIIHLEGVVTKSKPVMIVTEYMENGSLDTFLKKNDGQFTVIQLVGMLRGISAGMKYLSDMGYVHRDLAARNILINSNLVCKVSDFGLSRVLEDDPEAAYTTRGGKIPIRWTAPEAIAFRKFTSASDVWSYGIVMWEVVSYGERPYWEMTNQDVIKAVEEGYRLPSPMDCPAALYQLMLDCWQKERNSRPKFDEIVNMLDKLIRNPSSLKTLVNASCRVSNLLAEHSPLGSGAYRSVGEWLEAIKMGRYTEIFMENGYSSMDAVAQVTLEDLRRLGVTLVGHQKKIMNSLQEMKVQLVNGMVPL

The term inhibition denotes the change of the read-out against control, counted positive when it falls. Turning to `Cc1ncc(-c2nc(Nc3ccc(C(=O)NCCN4CCCCC4)cc3)ncc2F)n1C(C)C` [Compound 3], the inhibition at 10 µM was determined as 10% on NEK7; 98% on EPHA1; 70% at CAMK2B (CaMKII beta); 71% on EPHA5; 95% at AXL; 105% against INSRR (IRR). Besides, the values for the inhibition at 10 µM at PHKG2 and against PRKCQ (PKC theta) were 79% and 80%, respectively.
For `Cc1cc(Nc2nc(N)nn2C(=O)NC(C)C)ccc1Cl` [Compound 5], the inhibition at 10 µM against NEK7 is -0.441%; against EPHA1 it was 11%; on CAMK2B (CaMKII beta), -2.29%; against EPHA5, 6.49%; against AXL, 18%; on INSRR (IRR), 5.63%. For the same compound, the values for the inhibition at 10 µM against PHKG2 and against PRKCQ (PKC theta) were -2.57% and -8%, respectively.
Consider “XMD8-92 [Compound 2, reference compound]”, for which the “NEK7 % Inhibition” value at NEK7 (10 µM compound, ATP Km app) worked out at 11%. In addition, the “EPHA1 % Inhibition” value on EPHA1 (10 µM compound, ATP Km app) was determined as 9.48%. Further, the “CAMK2B (CaMKII beta) % Inhibition” value on CAMK2B (CaMKII beta) (10 µM compound, ATP Km app) was found to be 70%. In addition, the “EPHA5 % Inhibition” value at EPHA5 (10 µM compound, ATP Km app) is on record as 21%. Further, the “AXL % Inhibition” value at AXL (10 µM compound, ATP Km app) was determined as 3%. At INSRR (IRR) (10 µM compound, ATP Km app), the “INSRR (IRR) % Inhibition” value is recorded as 21%. The “PHKG2 % Inhibition” value at PHKG2 (10 µM compound, ATP Km app) amounted to 19%. Also, at PRKCQ (PKC theta) (10 µM compound, ATP Km app), the “PRKCQ (PKC theta) % Inhibition” value was determined as 52%.
